# According to patent publication US11771729B2, “Maca extract and use thereof” (KAOHSIUNG MEDICAL UNIVERSITY, priority 2021, dated 2023):
# Marks after values point to notes of the source that are not given here.
# What was measured:
# [1] = system: human CD34-positive endothelial progenitor cells (EPC); test: Pro-angiogenic test: EPC cell growth; assay type: cell-based; settings: 50 μM of each isolated compound, 48 hours, mean±SEM
# Procedure: Endothelial cell culture: Isolation and culture of human CD34-positive endothelial progenitor cells (EPC) were performed using conventional methods (Chen et al., 2018); human umbilical vein endothelial cells (HUVECs) were purchased from Promo Cell (Heidelberg, Germany); and EPCs and HUVECs were maintained in MV2 medium according to a known protocol (Chung et al., 2013).
# Measurement of cell growth: EPCs and HUVECs were cultured overnight at a density of 5×10^3 cells per well in a 96-well plate, and then, in the presence of the test specimen (that is, maca extract), the original medium was replaced with MV2 minimal medium and incubated for 48 hours. The measurements on EPC cell growth were as described in Yang et al., 2019.
# The results are shown in Table 1 as below, in which corresponding results are indicated as mean±SEM (the test was repeated 3 times as a whole), wherein, compared to the control group (DSMO), * denotes p<0.05, ** denotes p<0.01, *** denotes p<0.001; and - denotes being untested.
# RBL-2H3 cells [2] = test: Anti-allergy test: antigen-induced β-hexosaminidase release; assay type: cell-based; settings: for Antigen-induced β-hexosaminidase release Inhibition rate (%): Table 4, isolated compounds, concentration not given
# Procedure: (§1) Equivalently divided supernatants (50 μL) of control wells and experimental wells were incubated with an equal volume (50 μL) of […] p-NAG prepared in 0.1 M citrate buffer (pH 4.5), in which the buffer is formed as a matrix of released β-hexosaminidase; the reaction, after 1 hour incubation at 37° C., was stopped by adding 100 μL of termination buffer (0.1M Na2/NaHCO3, pH 10.0), and then, the absorbance at a wavelength of 405 nm was measured with a microplate reader. The percentage of inhibiting RBL-2H3 cells from releasing β-hexosaminidase was calculated as the percentage of control (untreated stimulated cells), and azelastine (20 μM) was used as a positive control. The test results are shown in Tables 4 to 6 below, and the corresponding results are indicated as mean±SEM (the test was repeated 3 times), wherein * denotes p<0.05, ** denotes p<0.01, *** denotes p<0.001; - denotes being untested; and N/A denotes that the specimen forms mycelium added to the medium, and accordingly, the results cannot be proven.
# human neutrophil [3] = test: Anti-neutrophil inflammation test: superoxide anion generation; assay type: cell-based; settings: isolated compounds (10 μM) and positive controls 10 μM, fMLF/CB-activated neutrophils, mean±SEM; for inhibition at 10 µM: Homo sapiens, Neutrophil, read-out: Inhibition rate (%) Superoxide anion generation
# Procedure: (§2) Isolation of human neutrophil: According to the standard scheme of […] sedimentation, neutrophils was obtained from peripheral blood, and then, the neutrophils were purified by centrifugation and erythrocyte hypotonic degradation in a Ficoll-Hypaque gradient; and then, it was confirmed by the trypan blue exclusion test that the purified neutrophils contained more than 98% live cells, and the purified neutrophils were suspended in HBSS without calcium at 4° C. (Yang et al., 2013) prior to the test.
# The level of superoxide anion generation by neutrophil activation was measured and determined based on the ferrocytochrome c reduction method according to Yang et al., 2013. In other words, human neutrophil cells (6×10^5 cells/mL) were mixed with 0.6 mg/mL of ferrocytochrome c and 1 mmol/L of CaCl at 37° C., and then the cells were treated with the test specimens having different concentrations (that is, maca extract) or DMSO (0.1% as control) for 5 minutes; thereafter, 10 minutes before activation with 100 nM of fMLF, the cells were incubated with cytochalasin B (1 μg/mL) for 3 minutes, changes in absorbance according to the decrease in ferrocytochrome c at a wavelength of […] with continuous stirring were continuously monitored using a spectrophotometer, and reactions were calculated with and without superoxide dismutase (SOD, 100 U/mL) with dividing by the extinction coefficient of the decreased ferrocytochrome c (21.1 mM^−1 cm^−1) reduction, thereby obtaining the difference value.
# RBL-2H3 cells [4] = test: Anti-allergy test: A23187-induced β-hexosaminidase release; assay type: cell-based
# Procedure: as §1
# human neutrophil [5] = test: Anti-neutrophil inflammation test: elastase release; assay type: cell-based; settings: isolated compounds (10 μM) and positive controls 10 μM, fMLF/CB-activated neutrophils, mean±SEM; for inhibition at 10 µM: Homo sapiens, Neutrophil, read-out: Inhibition rate (%) Elastase release
# Procedure: as §2
# The elastase release was used to measure degranulation of azurophilic granules in activated neutrophils (Yang et al., 2013); and the measurement was performed using methoxysuccinyl-Ala-Ala-Pro-Val-p-nitroaniline as an elastase matrix. At 37° C., neutrophils (6×10^5 cells/mL) were added to a mixture of matrix (100 μmol/L) and CaCl2 (1 mmol/L), and treated with the test specimens having different concentrations (that is, maca extract) or DMSO (0.1% as control) for 5 minutes, and then the cells were stimulated by using fMLF (100 nM)/CB (0.5 μg/mL), and changes in absorbance at the 405 nm wavelength were continuously monitored to measure the release of elastase, in which genistein and LY294002 were used as positive controls. The corresponding results are indicated as mean±SEM (the test was repeated 3 or 4 times), in which * denotes p<0.05, ** denotes p<0.01, *** denotes p<0.001; and - denotes being untested.
# RBL-2H3 cells [6] = test: Cell viability of RBL-2H3 cells (MTT); settings: Table 6, isolated compounds, head prints 200 μg/ml
# Procedure: Cells were cultured using DMEM medium supplemented with 10% FBS, and additional 100 U/mL penicillin and 100 μg/mL streptomycin. The cells were cultured in 10 cm Petri dishes in a 5% CO2 incubator at 37° C., the cells were secondary cultured in 80% confluent trypsin, and then seeded on culture plates at a density of 2×10^5 cells/mL for secretion measurement.
# Measurement on cell viability: RBL-2H3 cells were seeded in a 96-well plate at a concentration of 2×10^4 cells/well overnight, specimens having different concentrations (that is, maca extract, dissolved in DMSO) or untreated controls (1% DMSO in Tyrode buffer; 135 mM NaCl, 5 mM KCl, 1.8 mM CaCl, 1.0 mM MgCl2, 5.6 mM glucose, 20 mM HEPES and 1 mg/ml BSA, pH 7.4) were used to treat the cells, the media was removed from the wells after incubation at 37° C., 5% CO2, and an MTT solution (5 mg/mL) stock solution was diluted 1:10 in the medium and then added to the wells (100 μL per well); Thereafter, the cells were incubated at 37° C., 5% CO2 for 1 hours, the medium was removed, the formed Formazan crystals (which can be formed only in normal healthy cells) were dissolved in 100 μL DMSO, and the absorbance at 574 nm wavelength was measured using a microplate reader in which the plates were gently shaked before the measurement. Cell viability values for the specimens were calculated and indicated as a percentage (%) of the control groups (untreated cells).
smiles,measurement,setting,value
"N#CCc1cccc(O)c1 [Compound 8, 3-hydroxy-1-cyanomethylbenzene]",Cell growth rate (%) EPC,[1],103 ± 2%
same,inhibition at 10 µM,"RBL-2H3 cells [2]; RBL-2H3, read-out: Percentage of inhibiting antigen-induced β-hexosaminidase release (%) 10 μM/mL",13.7 ± 3.9%
same,inhibition at 100 µM,"RBL-2H3 cells [2]; RBL-2H3, read-out: Percentage of inhibiting antigen-induced β-hexosaminidase release (%) 100 μM/mL",13 ± 2.6%
same,inhibition at 500 µM,"RBL-2H3 cells [2]; RBL-2H3, read-out: Percentage of inhibiting antigen-induced β-hexosaminidase release (%) 500 μM/mL",4 ± 3.3%
same,inhibition at 10 µM,human neutrophil [3],0.45 ± 4.35%
same,inhibition at 10 µM,"RBL-2H3 cells [4]; RBL-2H3, read-out: Percentage of inhibiting A23187-induced β-hexosaminidase release (%) 10 μM/mL",11 ± 0.8%
same,inhibition at 100 µM,"RBL-2H3 cells [4]; RBL-2H3, read-out: Percentage of inhibiting A23187-induced β-hexosaminidase release (%) 100 μM/mL",8.3 ± 3.4%
same,inhibition at 500 µM,"RBL-2H3 cells [4]; RBL-2H3, read-out: Percentage of inhibiting A23187-induced β-hexosaminidase release (%) 500 μM/mL",11.7 ± 1.5%
same,inhibition at 10 µM,human neutrophil [5],1.78 ± 2.29%
same,Viability of RBL-2H3 cells at 200 μg/ml,RBL-2H3 cells [6],97.7%
"O=c1c(-c2ccc(O)cc2)coc2cc(O)cc(O)c12 [Genistein, reference compound]",inhibition at 10 µM,human neutrophil [3],93.37 ± 0.93%
same,inhibition at 10 µM,human neutrophil [5],44.2 ± 3.72%
"COCc1ccc(C=O)n1Cc1cccc(OC)c1 [Compound 3, 5-methoxymethyl-1-(m-methoxybenzyl)-2-aldehyde pyrrole]",Percentage of inhibiting antigen-induced β-hexosaminidase release (%) 10 μM/mL,RBL-2H3 cells [2],13.7 ± 1.9%
same,Percentage of inhibiting antigen-induced β-hexosaminidase release (%) 100 μM/mL,RBL-2H3 cells [2],10.7 ± 3.3%
same,Percentage of inhibiting antigen-induced β-hexosaminidase release (%) 500 μM/mL,RBL-2H3 cells [2],5.0 ± 4.1%
same,Antigen-induced β-hexosaminidase release Inhibition rate (%),RBL-2H3 cells [2],10.7 ± 3.3%
same,Percentage of inhibiting A23187-induced β-hexosaminidase release (%) 10 μM/mL,RBL-2H3 cells [4],3.7 ± 1.5%
same,Percentage of inhibiting A23187-induced β-hexosaminidase release (%) 100 μM/mL,RBL-2H3 cells [4],4.7 ± 0.7%
same,Percentage of inhibiting A23187-induced β-hexosaminidase release (%) 500 μM/mL,RBL-2H3 cells [4],12.7 ± 0.7%**
same,A23187-induced β-hexosaminidase release Inhibition rate (%),"RBL-2H3 cells [4]; Table 4, isolated compounds, concentration not given (values equal 100 μM column of Table 6)",4.7 ± 0.7%
same,Viability of RBL-2H3 cells at 200 μg/ml,RBL-2H3 cells [6],95.0%
"O=c1cc(N2CCOCC2)oc2c(-c3ccccc3)cccc12 [LY294002, reference compound]",inhibition at 10 µM,human neutrophil [3],95.3 ± 2.78%
same,inhibition at 10 µM,human neutrophil [5],72.8 ± 4.03%
"CC(=O)[C@@H]1CCC(=O)N1Cc1ccccc1 [Compound 1, (5S)-acetyl-1-benzylpyrrolidine-2-ketone]",Cell growth rate (%) EPC,[1],99 ± 1%
same,Percentage of inhibiting antigen-induced β-hexosaminidase release (%) 10 μM/mL,RBL-2H3 cells [2],3.7 ± 1.9%
same,Percentage of inhibiting antigen-induced β-hexosaminidase release (%) 100 μM/mL,RBL-2H3 cells [2],5.7 ± 2.2%
same,Percentage of inhibiting antigen-induced β-hexosaminidase release (%) 500 μM/mL,RBL-2H3 cells [2],9.0 ± 3.7%
same,Antigen-induced β-hexosaminidase release Inhibition rate (%),RBL-2H3 cells [2],9.0 ± 3.7%
same,Inhibition rate (%) Superoxide anion generation,human neutrophil [3],7.50 ± 1.96 %
same,Percentage of inhibiting A23187-induced β-hexosaminidase release (%) 10 μM/mL,RBL-2H3 cells [4],2.7 ± 1.2%
same,Percentage of inhibiting A23187-induced β-hexosaminidase release (%) 100 μM/mL,RBL-2H3 cells [4],4.0 ± 1.7%
same,Percentage of inhibiting A23187-induced β-hexosaminidase release (%) 500 μM/mL,RBL-2H3 cells [4],38.0±3.4%
same,Inhibition rate (%) Elastase release,human neutrophil [5],1.59 ± 0.99%
same,Viability of RBL-2H3 cells at 200 μg/ml,RBL-2H3 cells [6],95.3%
